Measured values reported in patent publication US20250108119A1, “NOVEL STEROID PAYLOADS, STEROID LINKERS, ADCs CONTAINING AND USE THEREOF” (IMMUNEXT, INC., priority 2021, published 2025).
“Also recorded” adds a separate entry of the source.

Columns and labels:
[1] = tested on: peritoneal resident macrophages (PRM); assay: In vivo treatment/ex vivo PRM activation, TNFα and IL-6 in supernatant; parameters: species or system hVISTA mice; settings: linker/payloads as anti-VISTA conjugates
Experimental: Based thereon we developed a model to allow us to evaluate long-term anti-inflammatory impact of ADC on specific target populations, such as PRMs. […] In the absence of GC treatment, after 2h PRMs become highly activated as shown by increases in cytokine production. […] The objective of these studies was to evaluate the efficacy and pharmacodynamic range of INX human VISTA antibodies conjugated to a glucocorticoid payload as compared to free Dex.
After euthanasia, mice were injected in the peritoneal cavity with 7 ml of PBS/0.5% BSA/2 mM EDTA. After a brief massage of the peritoneum, a small incision was performed and the peritoneal lavage collected. PRM were isolated using negative selection (Miltenyi kit, ref 130-110-434). Spleen were dissected and dissociated mechanically; monocytes were isolated using […] (Stem Cell, EasySep™ Mouse CD11b Positive Selection Kit II).
PRMs were resuspended in RPMI 1640 with 10% FBS, 10 mM Hepes, Penicillin/Streptomycin and glutamine and 100,000 cells were plated per well in a 96-well tissue culture plate. Supernatants were collected at 2 and 24h post plating and stored at −80° C. […]
• BioLegend (cat #430904) ELISA MAX Deluxe Set Mouse TNF-α • BioLegend (cat #431304) ELISA MAX Deluxe Set Mouse IL-6
ELISAs were conducted following the manufacturer's included protocol.

human PBMC = assay: Identification and quantification of released payload in human PBMC (MS); assay type: in vitro ADME; settings: 4 hrs, same antibody
Experimental: In all the following experiments, human PBMC, isolated from 1 healthy donor per study, were treated with exemplary anti-VISTA glucocorticoid conjugates according to the invention to allow identification and quantification of the released payload.
In the present experiments, after incubating PBMC with glucocorticoid (GC) antibody drug conjugates (ADC) for 4h, cells were harvested and assessed for both FKBP5 transcription induction via quantitative real time PCR (qPCR) as well as assessed via mass spectrometry (MS) for released payload identification and quantification.
Isolated PBMCs were resuspended in RPMI 1640 containing 10% human AB serum, 10 mM Hepes, 1× Penicillin/Streptomycin/L-Glutamine (assay media).
PBMCs from 1 donor were washed 2× in PBS, and then resuspended at 1×10^7/mL in media. […]
Remaining cells for each treatment were dived into aliquots representing 50 million cells per aliquot (for metabolite quantification only one aliquot per condition was generated). […]
Media was removed from each cell pellet with the media then set aside at −80C until it could be assessed for the concentration of effluxed payload. […]
Briefly, pre-chilled 70% ACN (extraction buffer) was added to the PBMC pellets for extraction. […] was injected onto the LCMS (Luna C18 (2) column, Thermo Scientific Q Exactive Hybrid Quadrupole Orbitrap) and resulting masses assessed. […]

[2] = tested on: steroid responsive genes in bone; assay: RNAseq of mouse bones after treatment; settings: INX231P 10 mg/Kg i.p. 20h (hVISTA KI); Dex 2 mg/Kg 2h (C57BI/6)
[3] = Plasma corticosterone after repeated treatment; assay type: in vivo, hVISTA KI mice; settings: Dex 2 or 0.2 mg/Kg daily for 4 days; INX201J 10 or 3 mg/Kg (0.2 or 0.06 mg/Kg of payload) on days 1, 3 and 4
Experimental: On day 5, mice were bled and their corticosterone levels assessed by ELISA.
The experiment was performed in female hVISTA KI mice. […] A control group was included that received daily PBS injections. On day 5, mice were bled and their plasma corticosterone levels assessed by ELISA.
The ELISA was conducted following the manufacturer's included protocol using Arbor Assays (cat #K014-H5) Corticosterone 5 pack ELISA Kit.

[4] = tested on: transferred naïve CD4 T cells from hVISTA KI mice; assay: T cell transfer colitis model; assay type: in vivo, Rag1-/- mice
Experimental: After >21 days, animals slowly start to lose weight and decreases in circulating naïve T cells are observed. In this model, the ADC targets only the transferred cells while the free GC can act on both transferred and host cells.
In EXPERIMENT 1, mice were treated with INX234P at 10 mg/Kg starting on day 0 and then once a week. […] In EXPERIMENT 1 treatment was initiated on day 0 (prophylactic) and terminated on day 61, whereas in EXPERIMENT 2 treatment was initiated on day 21 (or therapeutic) and remains ongoing at the time of this filing.
In both experiments, all treatments were administered once a week.
For EXPERIMENT 1, INX234P treatment was initiated on day 0 (or prophylactic) after naïve CD4 T cell transfer and terminated on day 61.
Naïve CD4 T cells were isolated from hVISTA KI spleen using an EasySep™ Mouse Naïve CD4+ T cell Isolation kit from StemCell (catalog #19765) following manufacturer instruction.
Following the protocol of Ostanin et al (2008), […] naïve CD45RB+, CD4+ T cells were injected i.p. on day 0
10 ml of antibody cocktail (see table on the right) was directly added to […] of blood. After 30 min incubation at room temperature (RT), 600 ml BD FACS lysis buffer was added to the sample. After 30 min incubation at RT, samples were spun at 550 rcf for 5 min, washed once in PBS, and then resuspended in a fixed volume of PBS. […]

[5] = Payload accumulation in cynomolgus tissues (LC-MS/MS); settings: single i.v.; INX234P 10 mg/kg, dexamethasone 2 mg/kg
[6] = tested on: steroid responsive genes in bone (Fkpb5, RANKL, ddit4, Fam107a); assay: Steroid responsive gene transcription in bone (RNAseq); assay type: in vivo, mouse; settings: Dex 2 mg/Kg i.p., 2h
Source text: In the figure Fkpb5 is shown on the left, RANKL the middle left, ddit4 the middle right and Fam107a on the extreme right.

[7] = biological target: CD163 on human blood cells (human) (UniProt Q86VB7); assay: flow cytometry, AF647-labelled antibody, bead-calibrated; CD14+ monocytes, human PBMC, n=5 donors, mean±SD
[8] = biological target: CD163 on human blood cells (human) (UniProt Q86VB7); assay: flow cytometry, AF647-labelled antibody, bead-calibrated; CD14+ monocytes, human whole blood, n=3 donors, mean±SD
human VISTA on cells [9] = biological target: T1, human VISTA on cells (human, UniProt Q9H7M9 33-311); assay: flow cytometry, AF488-labelled antibody on CD14+ monocytes of human PBMC, MFI normalised to INX200 at t=0
T1 sequence: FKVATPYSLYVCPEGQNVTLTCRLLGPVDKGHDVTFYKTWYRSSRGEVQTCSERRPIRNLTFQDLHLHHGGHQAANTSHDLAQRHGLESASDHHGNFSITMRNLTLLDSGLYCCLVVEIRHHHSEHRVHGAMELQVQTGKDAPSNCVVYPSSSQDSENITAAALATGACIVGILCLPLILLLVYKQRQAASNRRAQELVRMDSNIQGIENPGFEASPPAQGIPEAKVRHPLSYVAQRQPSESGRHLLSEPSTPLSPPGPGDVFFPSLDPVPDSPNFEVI

human VISTA on cells [10] = biological target: T1, human VISTA on cells; assay: cell-based or functional assay
[11] = biological target: T2, hIX50 (human VISTA ECD, produced at Aragen Bioscience) (human, UniProt Q9H7M9 33-194, biotinylated in the pH ELISA (sites not given)); assay: ELISA at pH 7.5: INX200 coated at 1 ug/mL; biotinylated hIX50 titrated at 0.001-1000 ng/mL; streptavidin-HRP/TMB; OD 450 nm. The value is a concentration of hIX50.
T2 construct: also called hINX50; soluble VISTA
T2 sequence: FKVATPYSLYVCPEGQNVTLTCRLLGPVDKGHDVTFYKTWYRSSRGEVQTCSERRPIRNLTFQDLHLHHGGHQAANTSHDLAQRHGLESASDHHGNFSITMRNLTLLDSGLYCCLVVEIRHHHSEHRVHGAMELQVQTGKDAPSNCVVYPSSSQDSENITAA

[12] = biological target: T2, hIX50 (human VISTA ECD, produced at …); assay: ELISA: hIX50 coated at 1 ug/mL; antibody titrated in PBS/Tween/BSA; mouse anti-human kappa-HRP/TMB; OD 450 nm.

CD163 on human blood cells (human), sequence (Q86VB7 42-1156): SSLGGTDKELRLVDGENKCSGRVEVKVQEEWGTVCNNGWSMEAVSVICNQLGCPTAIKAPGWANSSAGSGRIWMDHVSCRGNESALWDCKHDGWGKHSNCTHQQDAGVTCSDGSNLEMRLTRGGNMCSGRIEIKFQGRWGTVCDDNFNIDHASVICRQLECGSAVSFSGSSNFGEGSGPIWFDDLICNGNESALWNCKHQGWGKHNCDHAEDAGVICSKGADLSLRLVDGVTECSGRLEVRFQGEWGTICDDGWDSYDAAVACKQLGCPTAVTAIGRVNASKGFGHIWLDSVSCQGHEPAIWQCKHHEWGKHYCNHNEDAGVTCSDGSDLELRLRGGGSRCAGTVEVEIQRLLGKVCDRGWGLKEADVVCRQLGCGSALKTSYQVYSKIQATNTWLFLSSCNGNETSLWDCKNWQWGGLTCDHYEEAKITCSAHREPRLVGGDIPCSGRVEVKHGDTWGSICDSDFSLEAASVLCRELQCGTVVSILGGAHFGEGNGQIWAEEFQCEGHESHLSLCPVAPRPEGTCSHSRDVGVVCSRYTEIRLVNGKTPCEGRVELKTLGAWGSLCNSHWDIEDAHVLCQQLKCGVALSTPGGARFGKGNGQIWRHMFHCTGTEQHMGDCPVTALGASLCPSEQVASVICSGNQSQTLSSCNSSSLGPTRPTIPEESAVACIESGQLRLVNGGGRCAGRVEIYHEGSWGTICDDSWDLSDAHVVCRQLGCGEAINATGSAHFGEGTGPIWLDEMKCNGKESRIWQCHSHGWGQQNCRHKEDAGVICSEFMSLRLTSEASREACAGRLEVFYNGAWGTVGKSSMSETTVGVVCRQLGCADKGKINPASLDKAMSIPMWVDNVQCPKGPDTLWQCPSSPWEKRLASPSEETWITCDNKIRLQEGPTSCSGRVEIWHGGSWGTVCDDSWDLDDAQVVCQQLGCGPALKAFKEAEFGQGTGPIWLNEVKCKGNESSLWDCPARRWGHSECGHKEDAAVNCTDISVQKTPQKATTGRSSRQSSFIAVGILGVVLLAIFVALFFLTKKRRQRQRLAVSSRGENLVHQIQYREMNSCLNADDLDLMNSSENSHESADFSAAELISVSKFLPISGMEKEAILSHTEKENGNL

Molecule: C[C@]12C=CC(=O)C=C1CC[C@@H]1[C@@H]2[C@@H](O)C[C@@]2(C)[C@H]1C[C@H]1O[C@@H](c3ccc(CC45CC(NC(=O)[C@H](CCC(=O)O)NC(=O)CNC(=O)CBr)(C4)C5)cc3)O[C@]12C(=O)CO [INX P, (S)-4-(2-(2-bromoacetamido)acetamido)-5-((3-(4-((6aR,6bS,7S,8aS,8bS,10R,11aR,12aS,12bS)-7-hydroxy-8b-(2-hydroxyacetyl)-6a,8a-dimethyl-4-oxo-2,4,6a,6b,7,8,8a,8b,11a,12,12a,12b-dodecahydro-1H-naphtho[2′,1′:4,5]indeno[1,2-d][1,3]dioxol-10-yl)benzyl)bicycle[1.1.1]pentan-1-yl)amino)-5-oxopentanoic acid]
- potency in PRM cytokine model when dosed 7 days early (conclusions) [1]: show similar potency when dosed 7 days early
- released payload relative to INX J / INX231J (human PBMC): ~3 ×

Molecule: C[C@@H]1C[C@H]2[C@@H]3CCC4=CC(=O)C=C[C@]4(C)[C@@]3(F)[C@@H](O)C[C@]2(C)[C@@]1(O)C(=O)CO [Dex, dexamethasone]
- FKBP5 in bone (RNAseq) [2]: robust FKBP5 induction
- basal plasma corticosterone levels on day 5 [3]: Dex at 2 mg/Kg dramatically decreased basal corticosterone levels; also recorded: only limited though significant impact at 0.2 mg/Kg
- mice that had to be sacrificed ([4]; EXPERIMENT 1: high Dex (2 mg/Kg), 2 out of 10): 20%
- median survival ([4]; EXPERIMENT 1: once a week day 0 to day 61, unconjugated INX234 10 mg/Kg, low Dex 0.2 mg/Kg): 72.5 days
- accumulated compound in tissues at 24h (ng of compound/g of tissue) [5]: little accumulated free dexamethasone at 24h in any tissue
- impact on steroid responsive genes in bone [6]: significantly impacted

Molecule: CD163 Alexa Fluor 647 clone GHI/61 (BioLegend) (antibody)
- antibody binding capacity (ABC) (ABC (molecules per cell)) [7]: 36700
- antibody binding capacity (ABC) (ABC (molecules per cell)) [8]: 13100

Molecule: Human IgG1si (antibody)
- nonspecific signal at 0 min relative to INX200 (MFI, percent) (human VISTA on cells [9]): 5.9%

B1: INX201J (other)
VH: QVQLVQSGAEVKKPGASVKVSCKASGYTFANYLIGWVRQAPGQRLEWMGDIYPGGGFISYNEKFKGRVTITRDTSASTAYMELSSLRSEDTAVYYCARRFDYGGYFFDYWGQGTLVTVSS
VL: DIVMTQSPLSLPVTPGEPASISCRSSQSIVHSNGNIYLEWYLQKPGQSPQLLIYKVSNRFSGVPDRFSGSGSGTDFTLKISRVEAEDVGVYYCFQGSHVPWTFGQGTKLEIK
modifications: linker/payload INX J on the interchain disulfide cysteines; linker/payload INX J (protease sensitive linker, budesonide analog INX J-2) on the interchain disulfide cysteines, DAR 8.0
- FKBP5 transcription (qRT-PCR) in isolated human Tregs, 20 nM payload, against conjugated isotype control (human VISTA on cells [10]): 2.1 fold

B2: INX200 (antibody, human IgG1, V domains shown)
VH: B1 VH
VL: B1 VL
notes: also called humanized anti-human VISTA antibody on a human IgG1/kappa backbone with L234A/L235A silencing mutations
- EC50 (read off the curve) [11]: ~0.7 ng/mL
- EC50 (read off the curve) [12]: ~8 ng/mL
